Measurements taken from patent US20040192638A1, “Method and composition for prolonging the residence time of drugs in the gut” (priority 2001, published 2004).
“Also recorded” adds a separate entry of the source.

How the values were obtained:
Format in all cases: in vivo
rat small intestine [1] = assay: Sustained Spike Potential (SSP) myoelectric bioassay, infusion into the duodenum via cannula in instrumented uninfected rats
Description: Outbred male rats (Sprague Dawley, Harlan Sprague Dawley, Inc., Indianapolis, Ind.) were housed singly and maintained on a 12-hour light/12-hour dark cycle. All rats used in the bioassay procedure were uninfected with tapeworms. The design and surgical implantation procedure of the intestinal extracellular bipolar electrodes have been described previously (Dwinell et al., 1994, 1997). Briefly, four bipolar electrodes were surgically sutured to the intestinal serosa of each rat according to the methods of Dwinell et at. (1994), which is incorporated herein by reference. Three electrodes (J1-J3) were implanted on the jejunum at 10 cm intervals, with the first electrode (J1) placed 10 cm caudal from the ligament of Treitz and proceeding caudally with J2 and J3. A fourth electrode (designated “I” because it was placed within the ileum) was placed 20 cm orad from the ileo-caecal junction. In addition, a cannula was implanted with one end residing in the lumen of the mid-duodenum, whereas the other end was exteriorized to allow infusion of test fractions.
All compounds tested were infused into the duodenum via the cannula. Compounds were delivered in 0.2 ml aliquots followed immediately by a 0.2 ml saline cannula rinse. These volumes were used in order to prevent muscle contraction due to stretch from larger bolus volumes. To observe the induction of SSP, intestinal myoelectric activity was recorded for 90 minutes following infusion.
Consistent with the protocol of Dwinell et al. (1994), intestinal myoelectric activity was not recorded for the first five days after implantation surgery. Control recordings were taken after this period to assure the return of normal myoelectric patterns of the MMC following the cessation of post-surgical ileus. Periodic “control” recordings were made with saline on the intervening days between the tests with tapeworm-conditioned medium (TCM) or its fractions.
In vivo intestinal myoelectric activity was recorded with a polygraph chart recorder (Grass Instruments, Quincy, Mass.). The myoelectric signal from each electrode was simultaneously recorded on paper and by a personal computer with an I/O board and WINDAQ software (Dataq Instruments, Akron, Ohio) connected to the polygraph recorder by an analog-to-digital converter (Dataq Instruments).
Food was removed on each recording day at 0800 hour to prevent animal feeding and the subsequent disruption of the interdigestive myoelectric pattern. Recording occurred between 1300 and 1900 hours. All recording sessions for each animal were at least 1.5 hour in duration, and all animals were recorded while awake and unrestrained. Vehicle (0.9% saline or in some cases RPMI 1640) was used as control for test substances.
Five days after electrode and cannula implantation surgery, three consecutive baseline 90-minute recordings were made on separate days in each rat to confirm the presence of normal intestinal myoelectric activity at the end of the immediate post surgical period.
Secreted compounds were infused via the duodenal cannula and the frequency of the sustained spike potential (SSP) electrical patterns was determined from recordings of myoelectric activity. […] The third and final phase of the MMC (marked by arrowheads) is a period of >90% spiking and represents a series of contractions migrating orad to caudad along the small intestine. The caudad migration of phase III between electrode sites propels lumenal content toward the caecum.
Cyclic nucleotides were degraded to their 5′-monophosphate derivatives by incubation with bovine brain phosphodiesterase (PDE; cat. # P-0134, Sigma Co., St. Louis, Mo.).

rat small intestine [2] = assay: Effect of cGMP combined with succinate on SSP frequency (Example 3); details: for SSP stimulation (in words): FIG. 5
Experimental: In order to measure intestinal motility, rats were prepared as per […] et al. (1994) as described in the prior Examples. Briefly, electrodes were implanted along the length of the intestine to allow observation of intestinal muscle contraction, and a cannula was implanted in the duodenum to permit the infusion of test substances. After normal intestinal motility was established in each rat, test substances were infused through the duodenal cannula, and myoelectric recordings were used to observe the occurrence of SSP.

[3] = system: Male Ross x Ross broiler chicks; assay: Effect of cGMP on feed conversion ratio in broiler chicks
Experimental: cGMP for use in this Example was manufactured by ICN Biomedicals (Irvine, Calif.), and purchased from Fisher Scientific (Hampton, N.H.). Male Ross x Ross broiler chicks were obtained from Sunnyside Hatchery (Beaver Dam, Wis.). Standard commercial chick mash was used as a base ration. cGMP with and without succinate was dissolved in water and sprayed as a mist onto the basal diet during continuous mixing. […] Diets were prepared 1 to 3 days prior to the start of the experiment and stored in individual plastic buckets (1 bucket/replicate). Chicks were randomly placed into treatment groups with 5 birds per replicate. Chicks were weighed as a group, so each pen of 5 animals represents n=1. Treatments and replicates were randomly assigned (via a random number generator) to pens. Chicks were fed ad libitum and checked daily. Feed intake and pen weight were recorded weekly. Feed conversion ratios were calculated as grams of feed consumed/grams of weight gain in the animals. […] The results are shown in Table 2 for two sets of experiments. Experiment 1 was to run for 3 weeks, but was accidentally disrupted during the third week.

[4] = Experiment 1, per pen of 5 chicks, 10 mg cGMP/kg of feed and/or 100 mg succinate/kg of feed, terminated after week 2
[5] = Experiment 2, grams of feed consumed/grams of weight gain

Nc1nc2c(ncn2C2OC3COP(=O)(O)OC3C2O)c(=O)[nH]1 (stereo not shown) [cGMP, guanosine cyclic 3′, 5′-hydrogen phosphate]
SSP/Hr (MEAN ± SE) (rat small intestine [1]; 100 nM, 0.2 ml infused into duodenum): 0 SSP/Hr | SSP/Hr (MEAN ± SE) (rat small intestine [1]; 1 μM, 0.2 ml infused into duodenum): 0 SSP/Hr | SSP/Hr (MEAN ± SE) (rat small intestine [1]; 10 μM, 0.2 ml infused into duodenum): 0.5 ± 0.25 SSP/Hr | SSP/Hr (MEAN ± SE) (rat small intestine [1]; 100 μM, 0.2 ml infused into duodenum): 0.66 ± 0.38 SSP/Hr | SSP/Hr (MEAN ± SE) (rat small intestine [1]; 1 mM, 0.2 ml infused into duodenum): 0.80 ± 0.18 SSP/Hr | SSP/Hr (MEAN ± SE) (rat small intestine [1]; 5 mM, 0.2 ml infused into duodenum): 1.60 ± 0.38 SSP/Hr | SSP/Hr (MEAN ± SE) (rat small intestine [1]; 10 mM + 1 Unit PDE (incubated 30° C. 16 hours before infusion)): 0 SSP/Hr | ability to stimulate SSP after incubation with phosphodiesterase (PDE) before infusion (in words) (rat small intestine [1]; 10 mM cGMP solution or TCM incubated in PDE before bioassay): lose their ability to stimulate SSP; also recorded: control values | SSP/Hr (MEAN ± SE) (rat small intestine [1]; 10 mM, 0.2 ml infused into duodenum): 2.0 ± 0.38 SSP/Hr | SSP frequency compared with saline controls / background (in words) (rat small intestine [1]; 10 mM, 0.2 ml infused into intestinal lumen, FIG. 3): significantly increased | SSP/Hr (MEAN ± SE) (rat small intestine [1]; 10 mM, boiled before infusion): 1.0 ± 0.47 SSP/Hr | SSP/Hr (MEAN ± SE) (rat small intestine [1]; 100 mM, 0.2 ml infused into duodenum): 1.50 ± 0.46 SSP/Hr | SSP/Hr (MEAN ± SE) (rat small intestine [1]; 0.5 M, 0.2 ml infused into duodenum): 1.25 ± 0.41 SSP/Hr | lumenal dose range with significant increase in SSP frequency (rat small intestine [1]; FIG. 2, versus saline, Student t-test): 1 to 100 mM | stimulation / induction of SSP above background levels (in words) (rat small intestine [1]; infused into intestinal lumen, concentration not stated at the place): initiated SSP myoelectric patterns | SSP stimulation (in words) (rat small intestine [2]; 2.8 nM cGMP alone): did not stimulate SSP above the background; also recorded: generally does not produce | SSP stimulation (in words) (rat small intestine [2]; 10 mM cGMP alone): produces | concentrations of cGMP alone incapable of stimulating SSP (rat small intestine [2]; cGMP infused alone): below 1 mM | cGMP concentration required to activate SSP response (rat small intestine [2]; without succinate): about 10 mM | Feed Conversion Ration FCR ([3]; Experiment 1, grams of feed consumed/grams of weight gain): 1.535 ± 0.094 | Feed Intake [3, 4]: 2334 ± 144 | Gain [3, 4]: 1548 ± 65 | FCR Week 1 [3, 5]: 1.635 ± 0.093 | FCR Week 2 [3, 5]: 1.459 ± 0.058 | FCR Week 3 [3, 5]: 1.580 ± 0.059
